Earlier results as cited in publication PMC8364112 (Proceedings of the National Academy of Sciences of the …, 2021).

System: PTH2R
Settings: for mode of action on PTH2R: potent / mild / weak, ref [4], [16]

parathyroid hormone (SVSEIQLMHNLGKHLNSMERVEWLRKKLQDVHNF; Parathyroid hormone; UniProt P01270 32-65, looked up, fragment) [PTH]
mode of action on PTH2R [13]: mild

PTH-related peptide [PTHrP]
mode of action on PTH2R [13]: weak
action on PTH2R (ref [3], [4], [13]): weak action on PTH2R

B1: substitution of Ile5^P of PTH with a histidine: PTH with Ile5 substituted with a histidine (peptide, UniProt P01270 32-115, looked up, variant I5H)
Parathyroid hormone: SVSEHQLMHNLGKHLNSMERVEWLRKKLQDVHNFVALGAPLAPRDAGSQRPRKKEDNVLVESHEKSLGEADKADVNVLTKAKSQ
modifications: Parathyroid hormone
effect of position 5 substitution on potency on PTH2R (ref [27]): decreases the peptide potency
